Results taken from PMC12951562, “SH2scan: Mapping SH2 Domain-Ligand Binding Selectivity for Inhibitors and Degraders” (Journal of Medicinal Chemistry, 2026).
Like-named read-outs stand apart in the source and are kept apart here. Non-standard residues stand in square brackets, D forms with d. Residues, ends and D or L forms follow the SMILES beside them. *: point of attachment. pY = N[C@@H](Cc1ccc(OP(=O)(O)O)cc1)C(=O)O; Caffeoyl = O=C(/C=C/c1ccc(O)c(O)c1)*

Columns and labels:
Assay in all cases: biochemical
Type in all cases: binding
[1] = target: T1, ITK (Homo sapiens, UniProt Q08881); conditions: for percent of DMSO vehicle control: primary screen, 10 μM
T1 construct: the DNA-tagged SH2 domain concentrations used in this study were <0.1 nM; made in house; host or cells: HEK293 (transient transfection, unpurified extract)
T1 sequence (Q08881 239-338 limits assumed): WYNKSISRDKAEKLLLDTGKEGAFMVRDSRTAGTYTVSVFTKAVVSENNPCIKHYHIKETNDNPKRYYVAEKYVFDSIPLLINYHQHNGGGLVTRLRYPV

[2] = target: T2, FRK (Homo sapiens, UniProt P42685)
T2 construct: the DNA-tagged SH2 domain concentrations used in this study were <0.1 nM; made in house; host or cells: HEK293 (transient transfection; unpurified extract)

[3] = target: T3, CBLB (Homo sapiens, UniProt Q13191); conditions: for percent of DMSO vehicle control: primary screen, 10 μM
T3 construct: the DNA-tagged SH2 domain concentrations used in this study were <0.1 nM; made in house; host or cells: HEK293 (transient transfection; unpurified extract)

[4] = target: T4, TEC (Homo sapiens, UniProt P42680)
T4 construct: made in house; host or cells: HEK293 (transient transfection), unpurified extract
T4 sequence (P42680 1-631): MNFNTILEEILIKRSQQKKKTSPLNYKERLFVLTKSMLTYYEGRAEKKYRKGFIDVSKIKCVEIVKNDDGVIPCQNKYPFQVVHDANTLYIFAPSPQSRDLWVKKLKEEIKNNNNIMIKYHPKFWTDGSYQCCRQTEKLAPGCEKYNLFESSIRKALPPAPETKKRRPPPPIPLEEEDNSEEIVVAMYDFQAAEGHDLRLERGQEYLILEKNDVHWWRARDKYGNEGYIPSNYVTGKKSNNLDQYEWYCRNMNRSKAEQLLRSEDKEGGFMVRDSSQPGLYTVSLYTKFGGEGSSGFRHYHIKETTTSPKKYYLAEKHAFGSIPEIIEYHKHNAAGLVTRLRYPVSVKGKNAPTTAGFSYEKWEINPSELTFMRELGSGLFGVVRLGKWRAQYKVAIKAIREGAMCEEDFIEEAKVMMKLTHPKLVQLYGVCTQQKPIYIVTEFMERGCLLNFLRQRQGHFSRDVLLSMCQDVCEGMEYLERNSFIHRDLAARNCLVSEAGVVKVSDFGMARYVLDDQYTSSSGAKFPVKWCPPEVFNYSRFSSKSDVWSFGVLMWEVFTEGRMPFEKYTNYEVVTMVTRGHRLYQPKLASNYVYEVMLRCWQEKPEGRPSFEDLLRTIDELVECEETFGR

[5] = target: T5, TXK (Homo sapiens, UniProt P42681); conditions: for remaining activity at 10 µM: read-out: percent of DMSO vehicle control
T5 construct: made in house; host or cells: HEK293 (transient transfection), unpurified extract
T5 sequence (P42681 1-527): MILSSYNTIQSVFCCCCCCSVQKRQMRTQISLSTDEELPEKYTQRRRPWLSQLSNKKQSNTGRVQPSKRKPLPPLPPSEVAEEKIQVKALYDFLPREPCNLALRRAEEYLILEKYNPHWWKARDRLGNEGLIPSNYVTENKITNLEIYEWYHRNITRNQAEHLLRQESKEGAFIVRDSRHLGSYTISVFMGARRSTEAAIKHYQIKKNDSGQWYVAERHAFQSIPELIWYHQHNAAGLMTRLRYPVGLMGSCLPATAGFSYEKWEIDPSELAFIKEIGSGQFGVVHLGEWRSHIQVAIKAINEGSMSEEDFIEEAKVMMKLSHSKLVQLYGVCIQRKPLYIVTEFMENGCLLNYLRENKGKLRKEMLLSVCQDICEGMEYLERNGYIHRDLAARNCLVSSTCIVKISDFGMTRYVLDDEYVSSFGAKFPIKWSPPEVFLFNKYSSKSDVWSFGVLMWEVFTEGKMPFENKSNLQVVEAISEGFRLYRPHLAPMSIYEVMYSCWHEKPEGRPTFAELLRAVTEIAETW

[6] = target: T6, GADS (Homo sapiens, UniProt O75791)
T6 construct: the DNA-tagged SH2 domain concentrations used in this study were <0.1 nM; made in house; host or cells: HEK293 (transient transfection; unpurified extract)
T6 sequence (O75791 58-149 limits assumed): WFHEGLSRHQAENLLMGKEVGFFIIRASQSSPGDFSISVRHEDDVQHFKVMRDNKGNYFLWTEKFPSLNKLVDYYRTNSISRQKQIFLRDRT

[7] = target: T7, PLCG2(SH2dom.C-term.) (Homo sapiens, UniProt P16885); conditions: for remaining activity at 10 µM: read-out: percent of DMSO vehicle control
T7 construct: SH2dom.C-term. denotes SH2 domain closest to C-terminus of protein; made in house; host or cells: HEK293 (transient transfection, unpurified extract)
T7 sequence (P16885 646-735 limits assumed): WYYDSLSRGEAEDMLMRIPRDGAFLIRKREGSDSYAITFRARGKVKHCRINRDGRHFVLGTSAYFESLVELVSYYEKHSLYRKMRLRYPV

[8] = target: T8, SOCS4 (Homo sapiens, UniProt Q8WXH5); conditions: for remaining activity at 10 µM: read-out: percent of DMSO vehicle control
T8 construct: made in house; host or cells: HEK293 (transient transfection), unpurified extract
T8 sequence (Q8WXH5 1-440): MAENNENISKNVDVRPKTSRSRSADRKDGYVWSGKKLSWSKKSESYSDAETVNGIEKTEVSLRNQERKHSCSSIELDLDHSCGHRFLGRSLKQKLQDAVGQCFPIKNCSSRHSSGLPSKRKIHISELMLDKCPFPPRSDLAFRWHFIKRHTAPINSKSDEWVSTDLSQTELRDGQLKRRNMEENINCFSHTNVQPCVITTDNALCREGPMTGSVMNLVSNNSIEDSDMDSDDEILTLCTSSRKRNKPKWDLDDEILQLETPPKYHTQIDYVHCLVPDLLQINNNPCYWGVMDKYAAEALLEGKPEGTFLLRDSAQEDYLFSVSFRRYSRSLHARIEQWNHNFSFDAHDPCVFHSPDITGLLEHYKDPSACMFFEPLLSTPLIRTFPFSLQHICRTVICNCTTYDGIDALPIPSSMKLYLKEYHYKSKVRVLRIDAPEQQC

[9] = target: T9, SH2B (SH2B1) (Homo sapiens, UniProt Q9NRF2); conditions: for remaining activity at 10 µM: read-out: percent of DMSO vehicle control
T9 construct: made in house; host or cells: HEK293 (transient transfection), unpurified extract

[10] = target: T10, LYN (Homo sapiens, UniProt P07948); conditions: for remaining activity at 10 µM: read-out: percent of DMSO vehicle control
T10 construct: the DNA-tagged SH2 domain concentrations used in this study were <0.1 nM; made in house; host or cells: HEK293 (transient transfection, unpurified extract)

[11] = target: T11, YES (Homo sapiens, UniProt P07947); conditions: for remaining activity at 10 µM: read-out: percent of DMSO vehicle control
T11 construct: the DNA-tagged SH2 domain concentrations used in this study were <0.1 nM; made in house; host or cells: HEK293 (transient transfection; unpurified cell extract)

[12] = target: T12, PLCG2(SH2dom.N-term.) (Homo sapiens, UniProt P16885); conditions: for remaining activity at 10 µM: read-out: percent of DMSO vehicle control
T12 construct: SH2dom.N-term. denotes SH2 domain closest to N-terminus of protein; made in house; host or cells: HEK293 (transient transfection, unpurified extract)
T12 sequence (P16885 532-635 limits assumed): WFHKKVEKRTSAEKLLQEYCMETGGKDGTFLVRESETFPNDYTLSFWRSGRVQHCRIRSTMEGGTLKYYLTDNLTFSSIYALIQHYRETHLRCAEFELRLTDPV

[13] = read-out: percent of DMSO vehicle control
[14] = primary screen, 10 μM, read-out: percent of DMSO vehicle control

T10 sequence (P07948 129-226 limits assumed): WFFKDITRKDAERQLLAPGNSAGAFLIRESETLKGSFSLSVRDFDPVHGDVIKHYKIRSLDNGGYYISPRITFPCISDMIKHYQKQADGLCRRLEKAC
T3 sequence (Q13191 241-343 limits assumed): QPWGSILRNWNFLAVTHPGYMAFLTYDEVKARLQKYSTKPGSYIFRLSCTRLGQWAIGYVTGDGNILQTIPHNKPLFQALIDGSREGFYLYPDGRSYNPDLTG
T11 sequence (P07947 158-255 limits assumed): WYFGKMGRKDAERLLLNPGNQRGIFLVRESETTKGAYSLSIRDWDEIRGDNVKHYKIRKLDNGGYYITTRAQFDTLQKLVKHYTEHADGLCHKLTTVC
T2 sequence (P42685 116-208 limits assumed): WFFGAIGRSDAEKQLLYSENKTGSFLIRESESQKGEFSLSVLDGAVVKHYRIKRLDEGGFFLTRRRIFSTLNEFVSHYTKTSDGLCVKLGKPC

With CC[C@H](C)[C@H](NC(=O)[C@H](CCC(=O)O)NC(=O)[C@H](CCC(=O)O)NC(=O)[C@H](Cc1ccc(OP(=O)(O)O)cc1)NC(C)=O)C(=O)N[C@@H](CCC(=O)O)C(N)=O [Ac-pYEEIE-NH2] (Ac-[pY]EEIE-NH2) the “percent of DMSO vehicle control” value [1] was 122.5%, the “percent of DMSO vehicle control” value ([2]; primary screen, 10 μM) was 82.5% and the “percent of DMSO vehicle control” value [3] was 116.1%. The “percent of DMSO vehicle control” value ([4]; primary screen, 10 μM) was 119.3%, the “percent of DMSO vehicle control” value ([5]; primary screen, 10 μM) was 109.9% and the “percent of DMSO vehicle control” value ([6]; primary screen, 10 μM) was 115.5%. For the same compound, the “percent of DMSO vehicle control” value ([7]; primary screen, 10 μM) was 90.9%, the “percent of DMSO vehicle control” value ([8]; primary screen, 10 μM) was 32.2% and the “percent of DMSO vehicle control” value ([9]; primary screen, 10 μM) was 126.6%. The “percent of DMSO vehicle control” value ([10]; primary screen, 10 μM) was 38.1±2.4%, the Kd [11] was 3.8 µM and the “percent of DMSO vehicle control” value ([11]; primary screen, 10 μM) was 14.2±1.5%. For the same compound, the “percent of DMSO vehicle control” value ([12]; primary screen, 10 μM) was 92.3±3.3%.

In the case of CC(=O)N[C@@H](Cc1ccc(CP(=O)(O)O)cc1)C(=O)NC1(C(=O)N[C@@H](CC(N)=O)C(=O)NCCCc2c(O)ccc3ccccc23)CCCCC1 [CGP78850], the “percent of DMSO vehicle control” value [1] is reported as 113.6±8.8%, the percent of DMSO vehicle control at 10 µM [2, 13] is reported as 89.4 ± 19.2% and the “percent of DMSO vehicle control” value [3] is reported as 122.1±4.2%. For the same compound, the percent of DMSO vehicle control at 10 µM [4, 13] was 126.5 ± 0.2%, the remaining activity at 10 µM [5] was 74.4 ± 2.5% and the percent of DMSO vehicle control at 10 µM [6, 13] was 42 ± 2.5%. It also gave a remaining activity at 10 µM [7] of 104 ± 2.7%, a remaining activity at 10 µM [8] of 101 ± 1.6% and a remaining activity at 10 µM [9] of 125 ± 1.9%. For the same compound, the remaining activity at 10 µM [10] was 40%, the remaining activity at 10 µM [11] was 66.7 ± 8.3% and the remaining activity at 10 µM [12] was 87.2 ± 19.7%.

CC[C@H](C)[C@H](NC(=O)[C@H](CCC(=O)O)NC(=O)[C@H](CCC(=O)O)NC(=O)[C@H](Cc1ccc(OP(=O)(O)O)cc1)NC(=O)/C=C/c1ccc(O)c(O)c1)C(=O)N[C@@H](CCC(=O)O)C(=O)O [Caffeic acid-pYEEIE] (Caffeoyl-[pY]EEIE-OH) was tested, and the Kd [1] was 0.57 ± 0.63 µM, the “percent of DMSO vehicle control” value [1] was 3.1±0.3% and the Kd [2] was 0.0022 ± 0.00047 µM. The percent of DMSO vehicle control at 10 µM [2, 13] was 0.1 ± 0.1%, the Kd [3] was 5.7 ± 1.4 µM and the “percent of DMSO vehicle control” value [3] was 32.7±22.6%. For the same compound, the Kd [4] was 0.039 ± 0.0078 µM, the percent of DMSO vehicle control at 10 µM [4, 13] was 0.1% and the Kd [5] was 0.95 ± 0.25 µM. The remaining activity at 10 µM [5] was 2.7 ± 0.3%, the percent of DMSO vehicle control at 10 µM [6, 13] was 94.8% and the Kd [7] was 0.66 ± 0.7 µM. It also gave a remaining activity at 10 µM [7] of 1.1 ± 0.1%, a Kd [8] of 1.5 ± 0.81 µM and a remaining activity at 10 µM [8] of 2.5 ± 0.1%. It also gave a Kd [9] of 0.91 ± 0.31 µM, a remaining activity at 10 µM [9] of 2.3 ± 0.4% and a Kd [10] of 0.001 ± 0.00034 µM. The remaining activity at 10 µM [10] was 0%, the Kd [11] was 0.001 ± 0.00047 µM and the remaining activity at 10 µM [11] was 0%. The Kd [12] was 1.07 ± 0.32 µM and the remaining activity at 10 µM [12] was 1.2 ± 0.1%.

O=C(CCl)Nc1cccc(CNC(=O)[C@H](Cc2ccc(OP(=O)(O)O)cc2)NC(=O)Cc2ccc(F)cc2)c1 [MN551] was tested, and the “percent of DMSO vehicle control” value [1] was 51.4±1.1%, the remaining activity at 10 µM [2, 14] was 69 ± 8.3% and the “percent of DMSO vehicle control” value [3] was 86.8±3.2%. It also gave a remaining activity at 10 µM [4, 14] of 120%, a remaining activity at 10 µM ([5]; primary screen, 10 μM) of 89.1% and a remaining activity at 10 µM [6, 14] of 42.9 ± 0.8%. For the same compound, the remaining activity at 10 µM ([7]; primary screen, 10 μM) was 133%, the Kd ([8]; dose-response, read-out: KD) was 0.064 µM and the remaining activity at 10 µM ([8]; primary screen, 10 μM) was 9.6 ± 3.9%. It also gave a remaining activity at 10 µM ([9]; primary screen, 10 μM) of 105%, a remaining activity at 10 µM ([10]; primary screen, 10 μM) of 161% and a remaining activity at 10 µM ([11]; primary screen, 10 μM) of 46.5 ± 2.1%. For the same compound, the remaining activity at 10 µM ([12]; primary screen, 10 μM) was 109%.
